In patent publication US9486461B2, “Methods and compositions for inducing apoptosis by stimulating ER stress” (UNIVERSITY OF SOUTHERN CALIFORNIA, priority 2007, dated 2016):
“Also recorded” adds a separate entry of the source.

How the values were obtained:
human glioblastoma cells = test: Induction of apoptosis in human glioblastoma cells (FIG. 19); format: cell-based
Excerpt: In the figure, DMC stands for 4-[5-(2,5-dimethylphenyl)-3-(trifluoromethyl)-1H-pyrazol-1-yl]benzenesulfonamide; DBrC stands for 4-[5-(2,5-dibromophenyl)-3-(trifluoromethyl)-1H-pyrazol-1-yl]benzenesulfonamide; and DTF3C stands for 4-[5-(2,5-ditrifluoromethylphenyl)-3-(trifluoromethyl)-1H-pyrazol-1-yl]benzenesulfonamide.

[1] = test system: Tumor-associated Brain Endothelial Cells (TuBEC); test: Trypan blue exclusion, tumor-associated brain endothelial cells; format: cell-based
Description: After drug treatment the cells were incubated for another 12 days in the absence of drug, in order to determine their long-term survival; at that time cytotoxicity was evaluated using the trypan blue exclusion technique. Results are presented as number of viable cells per group.
Tumor-associated Brain Endothelial Cells (TuBEC) were treated with TMZ (300 uM) and 20 uM DMC for 48 hours. The drugs were removed and cells were incubated for another 12 days; at that time cytotoxicity was evaluated using the trypan blue exclusion technique. Results are presented as number of viable cells per group.

[2] = test system: cytoplasmic calcium levels in U251 cells; test: Cytoplasmic calcium imaging (Fura-2/AM); format: cell-based, human; details: 100 μmol/L of each drug, Fura-2/AM loaded cells
Description: (A) U251 cells were treated with DMC or various coxibs and NSAIDs, and changes in intracellular calcium levels were recorded as described in Materials & Methods. […] Arrows indicate timepoint of drug addition. […] Essentially similar results were also obtained with the LN229 cell line.
The cells were loaded by incubating them with […] Fura-2/AM (Invitrogen) for 30 min at room temperature in external solution containing 138 mmol/L NaCl, 5.6 mmol/L KCl, 1.2 mmol/L MgCl2, 2.6 mmol/L CaCl2, 10 mmol/L HEPES, and 4 mmol/L glucose (pH 7.4). After loading, the cells were rinsed and transferred to the imaging setup. The cells were treated with individual drugs for 10 s, whereas fluorescence was elicited with the excitation wavelength alternating between 350 and 380 nm, using a Polychromator V (TILL Photonics GmbH, Grafelfing, Germany) to provide illumination via a Zeiss Axiovert 100 microscope with a Zeiss Fluar 40 oil objective (Carl Zeiss, Jena, Germany). Images were captured using a Cascade 512B CCD camera (Photometrics, Tucson, Ariz.) controlled with MetaFluor software (Molecular Devices, Sunnyvale, Calif.) at 0.5 Hz acquisition frequency. Ratios of the images obtained at 350 and 380 nm excitation were used to show changes in the cytoplasmic calcium concentration, according to the principles developed by Grynkiewicz et al. (31).

U251 glioblastoma cells [3] = test: MTT assay, U251; format: cell-based, human; details: U251, 48 hours, concentrations of up to 100 μmol/L
Description: U251 glioblastoma cells were treated with different drugs, and various parameters of cell growth and cell death were comparatively analyzed. As controls, cells remained either non-treated (Co) or were treated with the solvent DMSO alone. (FIG. 8A) Cells were treated with 30 or 50 μM DMC for 48 hours and the effects on cell growth/survival and on cell death were determined by various assays. […] Below the three panels, the expression levels of the ER stress indicators CHOP, GRP78, and caspase 4 at the end of the 48 hour drug treatment is shown, as determined by Western blot analysis with specific antibodies (actin served as a loading control. (FIG. 8B) Cells were treated with various concentrations of different drugs for 48 hours, as indicated, and cell death was measured with the cell death ELISA kit. (FIG. 8C) Cells were treated with DMC or various coxibs and traditional NSAIDs for 48 hours, as indicated, and cell growth and survival was determined with the conventional MTT assay (control, non-treated cells were set at 100%). MTT assays were performed in 96-well plates with the use of 3.0-8.0×10^3 cells per well as described in detail elsewhere (34). In parallel, the expression levels of CHOP and GRP78 protein were determined by Western blot analysis. […]
3-(4,5-Dimethylthiazol-2-yl)-2,5-diphenyltetrazolium bromide (MTT) assays were performed in 96-well plates with the use of 3.0×10^3 to 8.0×10^3 cells per well as described in detail elsewhere (19).

U251 glioblastoma cells [4] = test: Cell death ELISA, U251; format: cell-based, human; details: U251, 48 hours, concentrations of up to 100 μmol/L
Description: U251 glioblastoma cells were treated with different drugs, and various parameters of cell growth and cell death were comparatively analyzed. As controls, cells remained either non-treated (Co) or were treated with the solvent DMSO alone. (FIG. 8A) Cells were treated with 30 or 50 μM DMC for 48 hours and the effects on cell growth/survival and on cell death were determined by various assays. […] Below the three panels, the expression levels of the ER stress indicators CHOP, GRP78, and caspase 4 at the end of the 48 hour drug treatment is shown, as determined by Western blot analysis with specific antibodies (actin served as a loading control. (FIG. 8B) Cells were treated with various concentrations of different drugs for 48 hours, as indicated, and cell death was measured with the cell death ELISA kit. (FIG. 8C) Cells were treated with DMC or various coxibs and traditional NSAIDs for 48 hours, as indicated, and cell growth and survival was determined with the conventional MTT assay (control, non-treated cells were set at 100%). MTT assays were performed in 96-well plates with the use of 3.0-8.0×10^3 cells per well as described in detail elsewhere (34). In parallel, the expression levels of CHOP and GRP78 protein were determined by Western blot analysis.
Apoptosis in cell cultures in vitro was determined by using the Cell Death Detection ELISA kit (Roche Diagnostics, Indianapolis, Ind.) according to the manufacturer's instructions. This immunoassay specifically detects the histone region (H1, H2A, H2B, H3, and H4) of mononucleosomes and oligonucleosomes that are released during apoptosis. Ninety-six-well plates were seeded with 1,000 cells per well and read at 405 nm in a Microplate Autoreader (Model EL 311 SX; Bio-Tek Instruments, Inc., Winooski, Vt.).

U87 glioblastoma tumors [5] = test: Tumor growth in xenograft nude mouse model; format: in vivo, nude mice; details: daily chow for DMC, 40 mg/kg for rofecoxib, n=5
Description: Once palpable tumors had formed, the animals received daily chow supplemented with DMC, rofecoxib, or no drug. Tumor size was determined every three days. Shown is the average (mean±SD) tumor volume in each group (n=5). Asterisks (**): p<0.01 between control and DMC-treated animals on day 42.

[6] = test system: CHOP protein in U87 glioblastoma tumor tissue; test: Immunohistochemical staining for CHOP in xenograft tumor tissue; format: in vivo, nude mice; details: U87 xenograft
Excerpt: In all cases, representative sections are shown.
Immunohistochemical analysis of protein expression in tumor tissues was done with the use of the Vectastain avidin-biotin complex method kit (Vector Laboratories, Burlingame, Calif.) according to the manufacturer's instructions. This procedure uses biotinylated secondary antibodies and a preformed avidin: biotinylated enzyme complex that has been termed the avidin-biotin complex method technique. As the primary antibody, we used anti-CHOP antibody (Santa Cruz Biotechnology) diluted 1:100 in 2% normal goat blocking serum.

U87 glioblastoma tumors [7] = test: TUNEL assay of xenograft tumor tissue; details: U87 xenograft, short-term drug treatment
[8] = test system: CHOP, GRP78, caspase 4 in U251 glioblastoma cells; test: Western blot of ER stress indicators in U251 cells; format: cell-based, human; details: for CHOP expression, time kinetics: U251, 50 μmol/L, 4 h up to 24 h; for increase in CHOP or GRP78 protein, concentration dependence: U251, 15 hours, concentrations up to 75 or 100 μmol/L
Description: U251 glioblastoma cells were cultured in the presence of 1 μM thapsigargin (Tg) or 60 μM DMC for various times, as indicated. Total cell lysates were prepared and analyzed by Western blot with specific antibodies to the ER stress proteins GRP78, CHOP, and caspase 4 (Casp 4). Actin was used as a loading control.
Shown are (A) time kinetics at 50 μM of each drug, and (B) concentration dependence after 15 hours of incubation.
Shown are (FIG. 7A) time kinetics at 50 μM of each drug, and (FIG. 7B), concentration dependence after 15 hours of incubation.
U251 glioblastoma cells were cultured for 24 hours in the presence of increasing concentrations of (A) bortezomib (BZM) or (B) DMC. Total cell lysates were analyzed by Western blot with specific antibodies to ubiquitin, GRP78, CHOP, and caspase 4. Actin was used as a loading control.
Total cell lysates were prepared by lysis of cells with radioimmunoprecipitation assay buffer (28), and protein concentrations were determined using the bicinchoninic acid protein assay reagent (Pierce, Rockford, Ill.). For Western blot analysis, 50 Ag of each sample were processed as described (29). The primary antibodies were purchased from Cell Signaling Technologies (Beverly, Mass.), Cayman Chemical (Ann Arbor, Mich.), or Santa Cruz Biotechnology, Inc. (Santa Cruz, Calif.) and used according to the manufacturer's recommendations. The secondary antibodies were coupled to horseradish peroxidase and detected by chemiluminescence using the SuperSignal West substrate from Pierce. All immunoblots were repeated at least once to confirm the results.
Total cell lysates were prepared and analyzed by Western blot analysis as described earlier (19). Immunohistochemical analysis of protein expression in tumor tissues was performed with the use of the Vectastain avidin-biotin complex method kit (Vector Laboratories) as described previously (32). The primary antibodies were purchased from Cell Signaling Technology or Santa Cruz Biotechnology, Inc. and used according to the manufacturers' recommendations. All immunoblots and stainings were repeated at least once to confirm the results.

SMILES	elevation of cytoplasmic calcium levels [2]	detectable effect on cell growth and survival (MTT) (U251 glioblastoma cells [3])	induction of cell death/apoptosis (cell death ELISA) (U251 glioblastoma cells [4])	further results
NS(=O)(=O)c1ccc(-n2nc(C(F)(F)F)cc2-c2cc(Br)ccc2Br)cc1 [DBrC, 4-[5-(2,5-dibromophenyl)-3-(trifluoromethyl)-1H-pyrazol-1-yl]benzenesulfonamide]				relative ability to induce apoptosis / cell killing effect compared to DMC (human glioblastoma cells): surprisingly potent cell killing effect
NS(=O)(=O)c1ccc(-n2nc(C(F)(F)F)cc2-c2cc(C(F)(F)F)ccc2C(F)(F)F)cc1 [DTF3C, 4-[5-(2,5-ditrifluoromethylphenyl)-3-(trifluoromethyl)-1H-pyrazol-1-yl]benzenesulfonamide]				relative ability to induce apoptosis / cell killing effect compared to DMC (human glioblastoma cells): surprisingly potent cell killing effect; also recorded: most potent compound
Cn1nnc2c(C(N)=O)ncn2c1=O [Temozolomide]				cytotoxicity on tumor-associated brain endothelial cells [1]: little cytotoxicity
CC(C(=O)O)c1ccc(-c2ccccc2)c(F)c1 (stereo not shown) [flurbiprofen]	none	none	did not induce apoptosis	
COc1ccc2c(c1)c(CC(=O)O)c(C)n2C(=O)c1ccc(Cl)cc1 [indomethacin]	none	none	did not induce apoptosis	
CS(=O)(=O)c1ccc(C2=C(c3ccccc3)C(=O)OC2)cc1 [rofecoxib, 4-(4′-methylsulfonylphenyl)-3-phenyl-2-(5H)-furanone]	none	none	did not induce apoptosis	tumor growth on longer-term therapy (U87 glioblastoma tumors [5]): not; CHOP staining of tumor tissues ([6]; 30-180 mg/kg per day for 50 h, DMC and celecoxib already at lowest dosages): consistently negative; CHOP protein expression in tumor tissue ([6]; animals fed drug for 50 h): no such increase was observed; apoptosis in the tumor tissue (U87 glioblastoma tumors [7]): did not display elevated levels of apoptosis; CHOP expression, time kinetics [8]: neither rofecoxib nor valdecoxib at the same concentration resulted in any detectable CHOP expression; increase in CHOP or GRP78 protein, concentration dependence [8]: neither rofecoxib nor valdecoxib was able to stimulate any detectable increase
CC1=C(CC(=O)O)c2cc(F)ccc2/C1=C\c1ccc([S+](C)[O-])cc1 (stereo not shown) [sulindac]	none	none	did not induce apoptosis	
C/C=C(/C)C(=O)O[C@H]1C(C)=C2[C@H]([C@@H]1OC(=O)CCCCCCC)[C@@](C)(OC(C)=O)C[C@H](OC(=O)CCC)[C@@]1(O)[C@H]2OC(=O)[C@@]1(C)O [thapsigargin]				time at which activation (cleavage) of caspase-4 was first noted ([8]; U251, 1 μM thapsigargin or 60 μM DMC): ~24 h; CHOP and GRP78 expression levels ([8]; U251, 1 μM thapsigargin or 60 μM DMC, prominent increase at 6 h and thereafter): substantially elevated
Cc1onc(-c2ccccc2)c1-c1ccc(S(N)(=O)=O)cc1 [valdecoxib, 4-[5-Methyl-3-phenylisoxazol-4-yl]-benzenesulfonamide]	none	none	did not induce apoptosis	CHOP expression, time kinetics [8]: neither rofecoxib nor valdecoxib at the same concentration resulted in any detectable CHOP expression; increase in CHOP or GRP78 protein, concentration dependence [8]: neither rofecoxib nor valdecoxib was able to stimulate any detectable increase
